Laboratory results as given in patent US6242428A, “Nucleoside analogs and uses in treating Plasmodium falciparum infection” (Unisearch Limited, priority 1998, dated 2001).
pIC50: −log10 of the molar value. Entries after “also recorded” stand apart in the source; their conditions may differ. Where two headings read alike, the source gives them in different places.

Tests used:
P. falciparum = assay: In vitro toxicity against P. falciparum in culture (radiolabelled hypoxanthine incorporation / lactate dehydrogenase assay); assay type: cell-based, Plasmodium falciparum, FCQ27
Experimental: P. falciparum, FCQ27, was maintained in culture using the techniques described by Trager & Jensen (W. Traqer and J. B. Jensen, Science, 193 673-675 (1976)). Cultures containing 2% hematocrit suspensions of parasitized human type O^+ erythrocytes in RPMI 1640 medium, supplemented with 25 mM HEPES-KOH, pH 7.2, 25 mM NaHCO3 and 10% human type O^+ serum (v/v) are maintained in modular incubator chambers at 37° C. in a gas mixture of 5% O2, 5% CO2 and 90% N2. The isolate of P. falciparum used in these experiments was FCQ27, routinely maintained in synchronized or asynchronous in vitro cultures at low hematocrit.
The potential toxicity of nucleoside analogues against P. falciparum in culture was tested in microtitre plates over the range of drug concentrations for 24 hours. The procedures for monitoring parasite viability is well established (A. M. Gero, H. V. Scott, W. J. O'Sullivan and R. I. Christopherson, Mol. Biochem. Parasitol. 34, 87-89 (1989)) and is based on radiolabelled hypoxanthine or isoleucine incorporation. The incorporation of [G-^3 H]hypoxanthine into the nucleic acids of P. falciparum was used to assess the viability of the parasite in vitro. Microculture plates were prepared with each well containing 225 μl of a 2% hematocrit culture of asynchronous parasited erythrocytes (1% parasitized cells). Each plate, containing varying concentrations of the drug to be studied (up to 200 μM final concentration for initial screen), was incubated for 24 h at 37° C. in a gas mixture of 5% O2, 5% CO2 and 90% N2, at which point [G-^3 H] hypoxanthine was added to each well and the incubation continued under identical conditions for a further 18-20 h. The control infected cells (i.e. without drug), routinely reached a parasitemia of 6-8% before harvesting. Expediency was aided by 96-well plate counter using lactate dehydrogenase for the drug susceptibility assay (L. K. Basco, F. Marguet, M. T. Makler and J. Lebbras, Exp. Parasitol. 80, 260-271 (1995); M. T. Makler and D. J. Hinrichs; Am. J. Trop. Med. Hyg. 48, 205-210 (1993)). This assay gave the identical results to the hypoxanthine technique. In addition, for each experiment, microscopic counting of Giemsa stained thin slides was used as a control.
The biological screen involved evaluation of the compounds against the protozoan P. falciparum in in vitro culture. The range of drug concentrations was used independently by two assays. One, radiolabelled hypoxanthine incorporation into the nucleic acid of P. falciparum, and the other, more expedient assay, a 96-well plate susceptibility assay using lactate dehydrogenase. Both assays gave identical results. In addition, microscopic counting of Giemsa stained thin slides was used as a control. Examples of experimental curves are attached as Appendix 2. The biological tests were done at several concentrations. The highest concentration was 200 μM, the compounds were considered active at concentrations less than 40 μM.

[1] = test system: P. falciparum infected erythrocytes (trophozoites); assay type: in vitro ADME, human erythrocytes infected with Plasmodium falciparum
Experimental: The metabolism of the L-nucleoside conjugates was studied by HPLC analysis. The primary aim was to determine their ability to be catabolized by parasite purine salvage enzymes. Some effect on the purine metabolic pools was also observed.
For each HPLC determination 200 μL of packed cells of 80-90% trophozoite infected cells were used. These were isolated from in vitro cultures by synchronization of the parasites in in vitro cultures using sterile D-sorbitol (L. Lambros and J. P. Vanderberg, Parasitol. 65, 418-420 (1979)) followed by separation of the trophozoites from non infected erythrocytes by Percoll gradients as described previously (A. M. Gero, H. V. Scott, W. J. O'Sullivan and R. I. Christopherson, Mol. Biochem. Parasitol. 34, 87-89 (1989)). Trophozoites were incubated at 37° C. for 2 hours with each compound to be tested. Compounds were incubated with both whole infected cells as whole and lyzed uninfected normal erythrocytes to determine:
a) entry to the cell (whether they were transported);
Drug incubation was terminated by centrifugation through silicon oil using the method of Upston and Gero (J. M. Upston and A. M. Gero, Biochem. Biophys. Acta. 1236, 249-258 (1995)). This procedure separated intact trophozoites from extracellular non-transported drug solution.
The metabolism of nucleosides with potential chemotherapeutic activity was assessed by the analysis of cytoplasmic samples by reverse phase ion-pair high performance liquid chromatography (R. S. Toguzov, Y. V. Tikhonov, A. M. Pimenov, V. Prokudin, Journal of Chromatography, I. Biomedical Appl. 434, 447-453 (1988)). Nucleotides, nucleosides and bases were separated by this HPLC method.
It has been established that transport and uptake in parasite invaded cells is different from that of normal blood erythrocytes (A. M. Gero & A. M. Wood, In: Pyrine & Pyrimidine Methabolism in Man VII, Part A. (R. A. Harkness et al., Eds) Plenum Press, NY, 169-172 (1991)). Invasion by the malaria parasite comprises the cell membrane, allowing penetration of unnatural substances of various size and shape, whereas normal cells are very selective in uptake. It was shown that L-nucleosides and their derivatives easily penetrate invaded cells, while they have a very slow rate of uptake into normal cells, if they enter at all. In order to obtain preliminary data on transport, uptake and metabolism, the HPLC method was used to analyze the following 10 Lipitek compounds: L-101, L-103, L-109, L-111, L-117, L-133, L-138, GCl 1007, GCl 1027, GCl 1069.
These compounds were chosen for the identification of possible metabolites. In this experiment the compounds were incubated with both whole infected cells, and with whole and lysed uninfected cells, followed by the separation of unreacted compound and HPLC analysis.

[2] = Plasmodium falciparum, 24 h, Table 1, 24 h drug exposure, up to 200 μM, read-out: IC50
[3] = Table 1, 24 h drug exposure, up to 200 μM, read-out: IC50

For Nc1ncnc2c1ncn2[C@H]1C[C@@H](OP(=O)(O)OC[C@H]2O[C@@H](n3cc(F)c(=O)[nH]c3=O)C[C@@H]2O)[C@H](CO)O1 [L-125, α-L-dA, β-D-FUdR], the “In vitro activity against P. falciparum, in words” value (P. falciparum) was “reduces the dimer activity in comparison with dimers containing the β-L unit”, the pIC50 (P. falciparum; [2]) was 4.22 and the pIC50 (P. falciparum; Plasmodium falciparum, Table 2, FUdR linkage position 5', read-out: IC50) was 4.22. It also gave a pIC50 (P. falciparum; Plasmodium falciparum, Table 3, α-L configuration of the L-nucleoside, read-out: IC50) of 4.22.
β-L-FUdR 5'SATE [B04] showed a pIC50 (P. falciparum; [3]) of 3.70.
β-L-mercapto-G [GCI 1034] was tested, and the pIC50 (P. falciparum; [3]) was less than 3.70.
In the case of Nc1nc2c(ncn2[C@@H]2C[C@@H](O)[C@H](CO)O2)c(=O)[nH]1 [GCI 1070, β-L-dG], the pIC50 (P. falciparum; [2]) was less than 3.70.
With Nc1ncnc2c1ncn2[C@@H]1O[C@@H](CO)[C@H](O)[C@@H]1O [GCI 1066, α-L-A] the pIC50 (P. falciparum; Plasmodium falciparum, 24 h) was less than 3.70.
With Nc1ncnc2c1ncn2[C@@H]1C[C@@H](OP(O)(=S)OC[C@H]2O[C@@H](n3cc(F)c(=O)[nH]c3=O)C[C@@H]2O)[C@H](CO)O1 (stereo partly drawn) [L-138-thio, β-L-dA, β-D-FUdR, S = P-O] the “In vitro activity against P. falciparum, in words” value (P. falciparum) was “reduced dramatically” and the pIC50 (P. falciparum; Plasmodium falciparum, 24 h) was 4.00.
In the case of O=c1ccn([C@@H]2C[C@@H](OP(O)(=S)OC[C@H]3O[C@@H](n4cc(F)c(=O)[nH]c4=O)C[C@@H]3O)[C@H](CO)O2)c(=O)[nH]1 (stereo partly drawn) [L-117 thio, β-L-dU, β-D-FUdR S = P-O], the “In vitro activity against P. falciparum, in words” value (P. falciparum) was “reduced dramatically”, the pIC50 (P. falciparum; Plasmodium falciparum) was less than 3.70 and the pIC50 (P. falciparum; Plasmodium falciparum, 24 h) was less than 3.70.
For Nc1ncnc2c1ncn2[C@@H]1CC[C@H](CO)O1 [GCI 1077, β-L-ddA], the pIC50 (P. falciparum; [2]) was less than 3.70.
For α-L-dT, NBMPR [L-146], the pIC50 (P. falciparum; [3]) was less than 3.70.
For O=c1[nH]c(=O)n([C@H]2C[C@@H](O)[C@H](CO)O2)cc1F [GCI 1027, 2'-deoxy-α-L-5-fluorouridine], the “entry to the infected cell” value [1] was “entered the infected cells”, the “In vitro activity against P. falciparum, in words” value (P. falciparum) was “no activity” and the pIC50 (P. falciparum; [2]) was less than 3.70. For the same compound, the pIC50 (P. falciparum; Plasmodium falciparum, Erythrocyte, 24 h, Table 6, SATE derivatives of FUdR, read-out: ID50 (the source's name)) was less than 3.70 and the “toxicity against P. falciparum, in words” value (P. falciparum; statement in the transport and metabolism study) was “toxic against P. falciparum”.
β-L-dU, NBMPR [L-145] was tested, and the pIC50 (P. falciparum; [3]) was less than 3.70.
With O=c1[nH]c(=O)n([C@H]2C[C@H](OP(O)(=S)OC[C@H]3O[C@@H](n4cc(F)c(=O)[nH]c4=O)C[C@@H]3O)[C@@H](CO)O2)cc1F (stereo partly drawn) [L-128, β-D, β-D-FUdR] S = P-O] the “In vitro activity against P. falciparum, in words” value (P. falciparum) was “only active phosphorothioate analog; also recorded: greater in comparison with all possible products of hydrolysis; also recorded: most active compound tested”, the “factor of increase in activity on replacing phosphate by phosphorothioate” value (P. falciparum; L-128 versus L-101) was 10 and the pIC50 (P. falciparum; Plasmodium falciparum) was 5.82. The pIC50 (P. falciparum; Plasmodium falciparum, 24 h) was 5.82.
Nc1ncnc2c1ncn2[C@H]1CC[C@H](CO)O1 [GCI 1079, α-L-ddA] gave a pIC50 (P. falciparum; [2]) of less than 3.70.
α-L-FUdR 5'SATE [B06] was tested, and the pIC50 (P. falciparum; [3]) was 3.82.
With β-D-FUdR, β-L-A [L-144] the pIC50 (P. falciparum; [3]) was 3.85 and the pIC50 (P. falciparum; Table 2, FUdR linkage position 3', read-out: IC50) was 3.85.
β-D-FUdR 3'-5'SATE [B03] gave a pIC50 (P. falciparum; [3]) of 5.22.
Nc1ncnc2c1ncn2[C@@H]1C[C@@H](O)[C@H](CO)O1 [GCI 1036, β-L-Da] was tested, and the pIC50 (P. falciparum; [2]) was less than 3.70.
